One assay deals with T1, recombinant ASK1 (Homo sapiens, UniProt Q99683).
T1 construct: purchased Carna Biosciences
Briefly: ASK1 Biochemical Assay (HTRF KinEASE-STK S3). The following applies: ATP 100 μM; read-out: Biochemical Assay IC50. The protocol:
ASK1 biochemical assay was standardized using recombinant ASK1 (Carna Biosciences), substrate and detection reagents from Cisbio HRTF KinEASE-STK S3 kit. Enzyme concentration, ATP, biotinylated STK substrate and STK antibodies were titrated for enzyme assay. Assay was carried out in ASK1 kinase buffer, 10 mM MOPS pH-7, 10 mM Mg-acetate, 1 mM DTT, 0.025% NP40, 1.5% glycerol and 0.05% BSA. DMSO was used as vehicle control with a final concentration of 1%. A 5 ng of ASK1 enzyme was incubated with compound for 1 hour at 23° C. on a shaker at 100rpm. ATP and biotin substrate was added at a final concentration of 100 μM and 1 μM and incubated for 3 hours at 23° C. on a shaker at 100rpm. […] Delta F ratios were calculated from data obtained at excitation (337 nm) and emission wavelengths (665 nm and 620-10 nm). Substrate blank values was considered as negative control. Values from negative control was substrated from vehicle control and compound treated wells. Enzyme inhibition by compounds were calculated from vehicle controls, which represent uninterrupted enzyme's activity.

The target in a further assay is T2, Human ASK1 (Homo sapiens, UniProt Q99683).
T2 construct: expressed in transfected cells; host or cells: HEK293T-AP1
T2 sequence (Q99683 1-1374): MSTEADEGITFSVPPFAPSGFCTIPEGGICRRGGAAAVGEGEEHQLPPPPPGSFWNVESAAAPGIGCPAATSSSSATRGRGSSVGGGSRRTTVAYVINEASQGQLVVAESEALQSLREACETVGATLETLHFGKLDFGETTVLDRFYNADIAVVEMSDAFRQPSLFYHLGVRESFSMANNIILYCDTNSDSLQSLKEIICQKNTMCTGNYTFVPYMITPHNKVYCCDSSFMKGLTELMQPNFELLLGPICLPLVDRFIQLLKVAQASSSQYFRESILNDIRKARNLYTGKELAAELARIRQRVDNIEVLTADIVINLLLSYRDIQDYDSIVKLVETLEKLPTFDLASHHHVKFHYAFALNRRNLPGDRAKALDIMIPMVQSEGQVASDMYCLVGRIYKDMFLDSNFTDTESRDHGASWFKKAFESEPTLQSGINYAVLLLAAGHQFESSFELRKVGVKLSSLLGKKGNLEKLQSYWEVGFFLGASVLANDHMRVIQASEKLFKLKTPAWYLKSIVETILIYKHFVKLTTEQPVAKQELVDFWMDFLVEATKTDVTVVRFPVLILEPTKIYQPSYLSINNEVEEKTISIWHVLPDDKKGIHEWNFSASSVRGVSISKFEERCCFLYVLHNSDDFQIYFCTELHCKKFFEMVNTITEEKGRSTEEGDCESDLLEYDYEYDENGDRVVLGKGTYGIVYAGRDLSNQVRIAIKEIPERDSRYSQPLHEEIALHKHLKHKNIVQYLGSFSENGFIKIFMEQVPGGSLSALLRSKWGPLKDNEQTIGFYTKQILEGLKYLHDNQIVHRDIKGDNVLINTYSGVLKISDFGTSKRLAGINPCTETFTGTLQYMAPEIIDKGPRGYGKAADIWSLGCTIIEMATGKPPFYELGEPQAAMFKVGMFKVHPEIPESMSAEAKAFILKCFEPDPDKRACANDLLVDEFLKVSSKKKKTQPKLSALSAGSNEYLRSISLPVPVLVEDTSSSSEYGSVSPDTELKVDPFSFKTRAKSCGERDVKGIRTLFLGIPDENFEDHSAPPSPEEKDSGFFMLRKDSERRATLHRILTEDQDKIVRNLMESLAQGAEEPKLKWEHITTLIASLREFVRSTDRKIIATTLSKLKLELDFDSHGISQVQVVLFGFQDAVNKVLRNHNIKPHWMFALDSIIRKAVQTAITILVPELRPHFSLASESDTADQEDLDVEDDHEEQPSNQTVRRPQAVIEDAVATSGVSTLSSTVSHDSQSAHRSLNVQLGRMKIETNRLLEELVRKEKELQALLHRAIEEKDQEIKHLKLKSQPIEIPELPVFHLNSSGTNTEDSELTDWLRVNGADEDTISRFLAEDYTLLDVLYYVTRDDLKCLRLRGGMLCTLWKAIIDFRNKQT
Briefly: ASK1 Cell Based Assay (phospho p38 read out in hASK1 transfected HEK293T-AP1 cells). To be noted: HEK293T-AP1 cells, 1 mM hydrogen peroxide, phospho p38; read-out: Cell Based Assay IC50. The protocol:
HEK293T-AP1 cells were seeded at a density of 20,000 cells per well in a poly-d-lysine coated 96 well microplate. Next day, cells were transfected with hASK1-pcDNA3.1 vector using lipofectamine 3000. After 24 hours of transfection, cells were treated with compounds for 24 hours in assay medium. DMSO was used as a vehicle control with a final DMSO concentration of 0.2%. On 4th day, medium was discarded and cells were activated with 1 mM hydrogen peroxide for 1 hour in the presence of compounds. Cells were lysed for 1 hour with 1× lysis buffer on a shaker at 100 rpm. Sixteen microliters of lysate was collected into a 384 well small volume plate. Phospho p38 levels in the lysate was detected by using CisbioPhospho-p38 MAPK (Thr180/Tyr182) #64P38PEG.Four microliters of phospho p38 antibodies labelled with europium cryptate and d2 acceptor, were added to the lysate and incubated overnight. TR-FRET was measured at an excitation of 335 nm and emission was measured at 615 nm and 665 nm in BMG FLUOstar multimode reader.
Compounds were assessed for ASK1 inhibition based on phospho p38 read out. […] Background control values were susbtracted from vehicle control as well as from compound treated wells.

SMILES strings stand for the structures. pIC50: −log10 of the molar value. Where only a bound is given, the exact number is not on record here.

For the compound `CC(C)n1cnnc1-c1cccc(N2CCN(c3cccc(-c4ccncc4)c3)C2=O)n1` [Example 1011, 1-(6-(4-isopropyl-4H-1,2,4-triazol-3-yl)pyridin-2-yl)-3-(3-(pyridin-4-yl)phenyl)imidazolidin-2-one], the pIC50 (in general, the IC50 on a negative log10 scale, so that one unit is a factor of ten) on recombinant ASK1 was greater than 6.00; on Human ASK1, less than 5.00.
For the compound `CC(C)n1cnnc1-c1cccc(N2CCN(c3ccc(S(C)(=O)=O)cc3)C2=O)n1` [Example 1013, 1-(6-(4-isopropyl-4H-1,2,4-triazol-3-yl)pyridin-2-yl)-3-(4-(methylsulfonyl)phenyl)imidazolidin-2-one], the pIC50 on recombinant ASK1 is greater than 7.00; at Human ASK1 it was greater than 6.00.
The corresponding values for `CC(C)n1cnnc1-c1cccc(N2CCN(c3cccc(-c4cnn(S(C)(=O)=O)c4)c3)C2=O)n1` [Example 1014, 1-(6-(4-isopropyl-4H-1,2,4-triazol-3-yl)pyridin-2-yl)-3-(3-(1-(methylsulfonyl)-1H-pyrazol-4-yl)phenyl)imidazolidin-2-one] are less than 7.00 and less than 5.00.
The corresponding values for `CC(C)n1cnnc1-c1cccc(N2CCN(c3ccc(S(C)(=O)=O)nc3)C2=O)n1` [Example 1018, 1-(6-(4-isopropyl-4H-1,2,4-triazol-3-yl)pyridin-2-yl)-3-(6-(methylsulfonyl)pyridin-3-yl)imidazolidin-2-one] are greater than 7.00 and less than 6.00.
The like results for `COc1ccc(-c2ccc(S(C)(=O)=O)nc2)cc1N1CCN(c2cccc(-c3nncn3C(C)C)n2)C1=O` [Example 1019, 1-(6-(4-isopropyl-4H-1,2,4-triazol-3-yl)pyridin-2-yl)-3-(2-methoxy-5-(6-(methylsulfonyl)pyridin-3-yl)phenyl)imidazolidin-2-one] were, in that order, less than 7.00 and less than 5.00.
Turning to `CC(C)n1cnnc1-c1cccc(N2CCN(c3ccc(S(N)(=O)=O)cc3)C2=O)n1` [Example 1020, 4-(3-(6-(4-isopropyl-4H-1,2,4-triazol-3-yl)pyridin-2-yl)-2-oxoimidazolidin-1-yl)benzenesulfonamide], the results for the pIC50 at recombinant ASK1 and on Human ASK1 were greater than 7.00 and less than 5.00, respectively.
Consider `CC(C)n1cnnc1-c1cccc(N2CCN(c3cc(-c4ccc(S(C)(=O)=O)nc4)ccc3F)C2=O)n1` [Example 1021, 1-(2-fluoro-5-(6-(methylsulfonyl)pyridin-3-yl)phenyl)-3-(6-(4-isopropyl-4H-1,2,4-triazol-3-yl)pyridin-2-yl)imidazolidin-2-one], for which the values for the pIC50 on recombinant ASK1 and at Human ASK1 were less than 6.00 and less than 5.00, respectively.
The corresponding values for `CC(C)n1cnnc1-c1cccc(N2CCNC2=O)n1` [Example 1022, 1-(6-(4-isopropyl-4H-1,2,4-triazol-3-yl)pyridin-2-yl)imidazolidin-2-one] are greater than 7.00 and less than 6.00.
Take `CC(C)n1cnnc1-c1cccc(N2CCN(c3ccc(S(=O)(=O)C4CC4)cc3)C2=O)n1` [Example 1025, 1-(4-(cyclopropylsulfonyl)phenyl)-3-(6-(4-isopropyl-4H-1,2,4-triazol-3-yl)pyridin-2-yl)imidazolidin-2-one]: the negative-log IC50 (pIC50) at recombinant ASK1 was greater than 7.00; on Human ASK1 it was greater than 6.00.
The like results for `Cc1cc(N2CCN(c3cccc(-c4nncn4C(C)C)n3)C2=O)ccc1S(C)(=O)=O` [Example 1029, 1-(6-(4-isopropyl-4H-1,2,4-triazol-3-yl)pyridin-2-yl)-3-(3-methyl-4-(methylsulfonyl)phenyl)imidazolidin-2-one] were, in that order, greater than 7.00 and less than 6.00.
The like results for `CC(C)n1cnnc1-c1cccc(N2CCN(c3ccc(S(C)(=O)=O)cc3F)C2=O)n1` [Example 1032, 1-(2-fluoro-4-(methylsulfonyl)phenyl)-3-(6-(4-isopropyl-4H-1,2,4-triazol-3-yl)pyridin-2-yl)imidazolidin-2-one] were, in that order, greater than 7.00 and less than 6.00.
For `CC(C)n1cnnc1-c1cccc(N2CCN(c3ccncc3)C2=O)n1` [Example 1034, 1-(6-(4-isopropyl-4H-1,2,4-triazol-3-yl)pyridin-2-yl)-3-(pyridin-4-yl)imidazolidin-2-one], the figures for the pIC50 at recombinant ASK1 and on Human ASK1 were greater than 7.00 and less than 6.00, respectively.
The like results for `CC(C)n1cnnc1-c1cccc(N2CCN(c3ccc(C#N)cc3)C2=O)n1` [Example 1035, 4-(3-(6-(4-isopropyl-4H-1,2,4-triazol-3-yl)pyridin-2-yl)-2-oxoimidazolidin-1-yl)benzonitrile] were, in that order, greater than 7.00 and less than 5.00.
The like results for `CC(C)n1cnnc1-c1cccc(N2CCN(c3ccc(-n4ccnc4)cc3)C2=O)n1` [Example 1036, 1-(4-(1H-imidazol-1-yl)phenyl)-3-(6-(4-isopropyl-4H-1,2,4-triazol-3-yl)pyridin-2-yl)imidazolidin-2-one] were, in that order, greater than 7.00 and greater than 6.00.
The corresponding values for `CC(C)n1cnnc1-c1cccc(N2CCN(c3ccc(C(=O)C4CC4)cc3)C2=O)n1` [Example 1037, 1-(4-(cyclopropanecarbonyl)phenyl)-3-(6-(4-isopropyl-4H-1,2,4-triazol-3-yl)pyridin-2-yl)imidazolidin-2-one] are greater than 7.00 and greater than 6.00.
With `CC(C)n1cnnc1-c1cccc(N2CCN(c3ccc(S(C)(=O)=O)c(F)c3)C2=O)n1` [Example 1038, 1-(3-fluoro-4-(methylsulfonyl)phenyl)-3-(6-(4-isopropyl-4H-1,2,4-triazol-3-yl)pyridin-2-yl)imidazolidin-2-one], the results for the pIC50 on recombinant ASK1 and on Human ASK1 were greater than 7.00 and greater than 6.00, respectively.
The corresponding values for `COc1ccc(N2CCN(c3cccc(-c4nncn4C(C)C)n3)C2=O)cc1` [Example 1039, 1-(6-(4-isopropyl-4H-1,2,4-triazol-3-yl)pyridin-2-yl)-3-(4-methoxyphenyl)imidazolidin-2-one] are greater than 7.00 and less than 6.00.
The like results for `CC(C)n1cnnc1-c1cccc(N2CCN(c3ccc(-n4cnc(C5CC5)c4)cc3)C2=O)n1` [Example 1040, 1-(4-(4-cyclopropyl-1H-imidazol-1-yl)phenyl)-3-(6-(4-isopropyl-4H-1,2,4-triazol-3-yl)pyridin-2-yl)imidazolidin-2-one] were, in that order, greater than 7.00 and less than 5.00.
The like results for `CC(C)n1cnnc1-c1cccc(N2CCN(c3ccc(N(C)C)cc3)C2=O)n1` [Example 1041, 1-(4-(dimethylamino)phenyl)-3-(6-(4-isopropyl-4H-1,2,4-triazol-3-yl)pyridin-2-yl)imidazolidin-2-one] were, in that order, greater than 7.00 and less than 6.00.
